Measurements from patent US20100152434A1, “Protein Kinase-binding Nucleosides and Associated Methods” (priority 2007, published 2010).
pIC50: −log10 of the molar value. Where two headings read alike, the source gives them in different places.

Tests used:
SK-OV-3 = experiment: cells; conditions: Homo sapiens, SK-OV-3
DU-145 = experiment: cells; conditions: Homo sapiens, DU-145
OVCAR-4 = experiment: cells; conditions: Homo sapiens, OVCAR-4
LOX IMVI = experiment: cells; conditions: Homo sapiens
SF-295 = experiment: cells; conditions: Homo sapiens, SF-295
788-0 = experiment: cells; conditions: Homo sapiens, 786-0
MCF7 [1] = experiment: cells; conditions: Homo sapiens, MCF7
MCF7 [2] = test system: MCF7
IGROV1 = experiment: cells; conditions: Homo sapiens, IGROV-1
HOP-62 = experiment: cells; conditions: Homo sapiens, HOP-62
HCC-2998 = experiment: cells; conditions: Homo sapiens, HCC 2998
[3] = Log10 Concentration −4.0, Molar
[4] = Log10 Concentration −5.0, Molar
[5] = Log10 Concentration −6.0, Molar
[6] = Log10 Concentration −7.0, Molar
[7] = Log10 Concentration −8.0, Molar

Compound: CNC(=O)NC[C@H]1O[C@@H](n2cnc3c(NC(=O)Nc4ccccc4)ncnc32)C(O[Si](C)(C)C(C)(C)C)[C@H]1O[Si](C)(C)C(C)(C)C (some centres unmarked) [Compound 25, 2′,3′-Bis-O-(tert-butyldimethylsilyl)-5-deoxy-5′-[(N-methylcarbamoyl)amino]-N^6-(N-phenylcarbamoyl)adenosine]
- TGI (OVCAR-8): 4.01E−5 Molar
- Percent Growth (OVCAR-8; [3]): −9%
- Percent Growth (OVCAR-8; [4]): 13%
- Percent Growth (OVCAR-8; [5]): 106%
- Percent Growth (OVCAR-8; [6]): 106%
- Percent Growth (OVCAR-8; [7]): 108%
- TGI (OVCAR-5): 2.52E−5 Molar
- Percent Growth (OVCAR-5; [3]): −43%
- Percent Growth (OVCAR-5; [4]): 29%
- Percent Growth (OVCAR-5; [5]): 103%
- Percent Growth (OVCAR-5; [6]): 99%
- Percent Growth (OVCAR-5; [7]): 96%
- GI50 (SK-OV-3): 5.88 µM
- pIC50 (SK-OV-3): < 4.00
- TGI (OVCAR-3): 5.54E−6 Molar
- Percent Growth (OVCAR-3; [3]): −50%
- Percent Growth (OVCAR-3; [4]): −39%
- Percent Growth (OVCAR-3; [5]): 113%
- Percent Growth (OVCAR-3; [6]): 113%
- Percent Growth (OVCAR-3; [7]): 111%
- GI50 (DU-145): 2.59 µM
- pIC50 (DU-145): 4.73
- TGI (M14): 1.85E−5 Molar
- Percent Growth (M14; [3]): −52%
- Percent Growth (M14; [4]): 19%
- Percent Growth (M14; [5]): 105%
- Percent Growth (M14; [6]): 107%
- Percent Growth (M14; [7]): 101%
- TGI (MDA-MB-231/ATCC): 5.12E−6 Molar
- Percent Growth (MDA-MB-231/ATCC; [3]): −76%
- Percent Growth (MDA-MB-231/ATCC; [4]): −20%
- Percent Growth (MDA-MB-231/ATCC; [5]): 106%
- Percent Growth (MDA-MB-231/ATCC; [6]): 109%
- Percent Growth (MDA-MB-231/ATCC; [7]): 105%
- GI50 (OVCAR-4): 3.44 µM
- pIC50 (OVCAR-4): < 4.00
- GI50 (LOX IMVI): 1.82 µM
- pIC50 (LOX IMVI): 4.21
- GI50 (SF-295): 3.84 µM
- pIC50 (SF-295): < 4.00
- GI50 (788-0): 2.04 µM
- pIC50 (788-0): 5.17
- TGI (RPMI-8226): >1.00E−4 Molar
- Percent Growth (RPMI-8226; [3]): 4%
- Percent Growth (RPMI-8226; [4]): 5%
- Percent Growth (RPMI-8226; [5]): 98%
- Percent Growth (RPMI-8226; [6]): 98%
- Percent Growth (RPMI-8226; [7]): 102%
- GI50 (MCF7 [1]): 2.69 µM
- pIC50 (MCF7 [1]): < 4.00
- TGI (TK-10): 7.26E−5 Molar
- Percent Growth (TK-10; [3]): −2%
- Percent Growth (TK-10; [4]): 14%
- Percent Growth (TK-10; [5]): 112%
- Percent Growth (TK-10; [6]): 113%
- Percent Growth (TK-10; [7]): 110%
- TGI (MCF7 [2]): 1.93E−5 Molar
- Percent Growth (MCF7 [2]; [3]): −15%
- Percent Growth (MCF7 [2]; [4]): 5%
- Percent Growth (MCF7 [2]; [5]): 83%
- Percent Growth (MCF7 [2]; [6]): 96%
- Percent Growth (MCF7 [2]; [7]): 99%
- TGI (KM12): 4.41E−6 Molar
- Percent Growth (KM12; [3]): −74%
- Percent Growth (KM12; [4]): −66%
- Percent Growth (KM12; [5]): 107%
- Percent Growth (KM12; [6]): 111%
- Percent Growth (KM12; [7]): 104%
- GI50 (IGROV1): 2.74 µM
- pIC50 (IGROV1): < 4.00
- TGI (UACC-62): 2.36E−5 Molar
- Percent Growth (UACC-62; [3]): −39%
- Percent Growth (UACC-62; [4]): 23%
- Percent Growth (UACC-62; [5]): 90%
- Percent Growth (UACC-62; [6]): 100%
- Percent Growth (UACC-62; [7]): 102%
- TGI (SK-MEL-5): 4.75E−6 Molar
- Percent Growth (SK-MEL-5; [3]): −99%
- Percent Growth (SK-MEL-5; [4]): −42%
- Percent Growth (SK-MEL-5; [5]): 82%
- Percent Growth (SK-MEL-5; [6]): 96%
- Percent Growth (SK-MEL-5; [7]): 102%
- TGI (SNB-19): >1.00E−4 Molar
- Percent Growth (SNB-19; [3]): 7%
- Percent Growth (SNB-19; [4]): 29%
- Percent Growth (SNB-19; [5]): 91%
- Percent Growth (SNB-19; [6]): 100%
- Percent Growth (SNB-19; [7]): 97%
- TGI (NCI-H23): 9.07E−6 Molar
- Percent Growth (NCI-H23; [3]): −53%
- Percent Growth (NCI-H23; [4]): −5%
- Percent Growth (NCI-H23; [5]): 105%
- Percent Growth (NCI-H23; [6]): 106%
- Percent Growth (NCI-H23; [7]): 100%
- GI50 (HOP-62): 49.8 µM
- pIC50 (HOP-62): 4.31
- GI50 (HCC-2998): 2.02 µM
- pIC50 (HCC-2998): 5.16
- TGI (U251): 1.08E−5 Molar
- Percent Growth (U251; [3]): −46%
- Percent Growth (U251; [4]): 2%
- Percent Growth (U251; [5]): 93%
- Percent Growth (U251; [6]): 102%
- Percent Growth (U251; [7]): 102%
- TGI (HT29): 3.73E−6 Molar
- Percent Growth (HT29; [3]): −100%
- Percent Growth (HT29; [4]): −80%
- Percent Growth (HT29; [5]): 107%
- Percent Growth (HT29; [6]): 104%
- Percent Growth (HT29; [7]): 102%
- TGI (BT-549): 9.18E−6 Molar
- Percent Growth (BT-549; [3]): −35%
- Percent Growth (BT-549; [4]): −10%
- Percent Growth (BT-549; [5]): 103%
- Percent Growth (BT-549; [6]): 112%
- Percent Growth (BT-549; [7]): 113%
